Measured values from US9402839B2, “Selective targeting agents for mitochondria” (University of Pittsburgh—Of the Commonwealth System of …, priority 2006, dated 2016).

How the values were obtained:
[1] = tested on: mouse embryonic cells (MEC); assay type: cell-based
Experimental: Electron paramagnetic resonance (“EPR”) spectroscopy was used to monitor the cellular delivery of compounds 5a and 5b shown in FIG. 2 in mouse embryonic cells (“MEC”).
The following conditions were used during the EPR-based analysis of the integration and reduction of nitroxide Gramicidin S-peptidyl conjugates in MECs. The MECs at a concentration of 10 million MECs per mL were incubated with 10 μM of 4-AT and compound 5a, respectively. Recovered nitroxide radicals in whole cells, mitochondria, and cytosol fractions were resuspended in phosphate buffer saline (“PBS”) in the presence and absence, respectively, of 2 μM K3Fe(CN)6.

MECs = assay: Determination of intracellular superoxide radicals (DHE oxidation, flow cytometry) in ActD-treated MECs; assay type: cell-based, mouse; settings: 10 μM pretreatment, ActD 100 ng/mL; nearly two-fold ActD-induced increase
Experimental: Determination of intracellular superoxide radicals Oxidation-dependent fluorogenic dye, dihydroethidium (“DHE”, Molecular Probes) was used to evaluate intracellular production of superoxide radicals. DHE is cell permeable and, in the presence of superoxide, is oxidized to fluorescent ethidium which intercalates into DNA. The fluorescence of ethidium was measured using a FACscan (BECTON-DICKINSON, Rutherford, N.J.) flow cytometer, equipped with a 488-nm argon ion laser and supplied with the Cell Quest software. Mean fluorescence intensity from 10,000 cells were acquired using a 585-nm bandpass filter (FL-2 channel).

[2] = tested on: Caco-2BBe human enterocyte-like monolayers; assay: Permeability of Caco-2 monolayers exposed to menadione (FD4 clearance); assay type: cell-based; settings: 10 μM apical, menadione 50 μM, 6 hours
Experimental: Cells. Caco-2BBe human enterocyte-like epithelial cells were obtained from the AMERICAN TYPE CULTURE COLLECTION (Manassas, Va.). Cells were routinely maintained at 37° C. in under a humidified atmosphere containing 8% CO2 in air. The culture medium was DMEM supplemented with 10% FBS, non-essential amino acids supplement (SIGMA-ALDRICH catalogue #M7145), sodium pyruvate (2 mM), streptomycin (0.1 mg/ml), penicillin G (100 U/ml) and human transferrin (0.01 mg/ml). The culture medium was changed 3 times per week.
Measurement of permeability of Caco-2 monolayers. Caco-2BBe cells were plated at a density of 5×10^4 cells/well on permeable filters (0.4 μm pore size) in 12-well bicameral chambers (TRANSWELL, COSTAR, Corning, N.Y.).
Briefly, the medium on the basolateral side was replaced with control medium or medium containing menadione (50 μM final). Medium containing FD4 (25 mg/ml) was applied to the apical chamber. In some cases, one of the gramicidin S-based compounds, XJB-5-131, also was added to the apical side at final concentrations of 0.1, 1, 10 or 100 μM. […] Permeability of the monolayers was expressed as a clearance (pL·h^−1·cm^−2), see Han, X. et al., Proinflammatory cytokines cause NO dependent and independent changes in expression and localization of tight junction proteins in intestinal epithelial cells, SHOCK 19:229-237 (2003). […]

CC(C)C[C@@H](/C=C/[C@H](Cc1ccccc1)C(=O)N1CCC[C@H]1C(=O)N[C@H](C(=O)N[C@@H](CCCNC(=O)OCc1ccccc1)C(=O)NC1CC(C)(C)N([O])C(C)(C)C1)C(C)C)NC(=O)OC(C)(C)C [XJB-5-131]
EPR triplet signals of nitroxide radicals in MECs and in mitochondria isolated from these cells ([1]; 10 μM, no EPR signal in the cytosolic fraction): Distinctive characteristic triplet signals of nitroxide radicals were detected | integration and one-electron reduction in MECs (EPR signal increase upon ferricyanide) ([1]; 10 μM, with and without K3Fe(CN)6): resulted in integration and one-electron reduction | concentration in the mitochondria of cultured mouse embryonic cells ([1]; after incubation with solutions of the compounds): concentrated in the mitochondria | intracellular superoxide generation in MECs (MECs): completely inhibited | protection against menadione-induced hyperpermeability [2]: significant protection
